Measured values as given in PMC3706206 (Chemico-biological interactions, 2011).
Like-named read-outs stand apart in the source and are kept apart here. One block for each compound: values may come before it.

Assays:
[1] = biological target: T1, human placenta GST (hGSTP1-1) (Homo sapiens, UniProt P09211); assay: Inhibition of human placenta GST; format: biochemical; conditions: for GST inhibition in the absence and presence of tyrosinase: controls; for GST activity inhibition: quinone formed with tyrosinase; for GST inhibition: 25 µM
[2] = test system: SK-MEL-28 melanoma cells; assay: MTT cell cytotoxicity assay; format: cell-based, human; conditions: for IC50: Homo sapiens, SK-MEL-28, 48 h, read-out: IC50 (48 h)
[3] = biological target: T2, GST (human placenta, hGSTP1-1) (Homo sapiens, UniProt P09211); assay: GST substrate assay; format: biochemical; conditions: for substrate for GST (GSH consumption as biomarker): GST 0.1 U/mL, GSH 500 µM, no tyrosinase, up to 60 min at 37 °C
[4] = test system: tyrosinase; assay: Metabolism by tyrosinase; format: biochemical, Mushroom
[5] = test system: SK-MEL-28 melanoma cells; assay: Effect of modulators on CAPE toxicity; format: cell-based, human; conditions: for MTT assay value, No modulator / MTT assay value, Ethacrynic acid (2 µM) / MTT assay value, MK-571 (10 µM) / MTT assay value, Probenecid (500 µM): 48 h; for MTT assay value, Ethacrynic acid (2 µM): 1 h pretreatment with EA; for MTT assay value, MK-571 (10 µM): 1 h pretreatment with MK-571; for MTT assay value, Probenecid (500 µM): 1 h pretreatment with probenecid; for MTT assay value, modulator alone, Cells (1% DMSO) / MTT assay value, modulator alone, Cells: no CAPE, MK-571 10 µM, probenecid 500 µM, ethacrynic acid 2 µM; for decrease of the IC50 value of CAPE (30 µM): MK-571 10 µM or probenecid 500 µM with CAPE 30 µM
[6] = biological target: T1, human placenta GST (hGSTP1-1); assay: Reversible/irreversible nature of GST inhibition; format: biochemical; conditions: GST activity after filtering the reaction mixture through 10 K Millipore filter; 25 µM
[7] = cited from earlier work
[8] = biological target: T2, GST (human placenta, hGSTP1-1); assay: Competitive and non-competitive GST inhibition, Lineweaver-Burk plots, Ki; format: biochemical; conditions: for Mechanism of GST inhibition, with respect to GSH (0.2–1 mM): Inhibition / Mechanism of GST inhibition, with respect to CDNB (0.2–1 mM): Inhibition: CAPE 100 µM, CAPE-quinone 10 µM, CAPE-SG 10 µM, EA 20 µM; for Ki′ with respect to GSH (0.2–1 mM) / Ki′ with respect to CDNB (0.2–1 mM): mixed inhibition; for Ki: apparent Ki
[9] = test system: SK-MEL-28 cells; assay: Annexin V-FITC/propidium iodide apoptosis assay; format: cell-based, human; conditions: for increase of CAPE (15 µM) induced apoptotic cell death / increase of CAPE (30 µM) induced apoptotic cell death: MK-571 10 µM or probenecid 500 µM, 1 h pretreatment, 48 h
[10] = test system: SK-MEL-28 melanoma cells; assay: Mitochondrial membrane potential assay; format: cell-based, human; conditions: for increase of the effect of CAPE (15–30 µM) on mitochondrial membrane potential: MK-571 10 µM or probenecid 500 µM, approximate; for further decrease of mitochondrial membrane potential for CAPE (15 µM) / further decrease of mitochondrial membrane potential for CAPE (30 µM): combination with MK-571 10 µM or probenecid 500 µM, 48 h
[11] = test system: GST in human SK-MEL-28 melanoma cell homogenate; assay: Inhibition of GST in human SK-MEL-28 melanoma cell homogenate; format: biochemical; conditions: 15–100 µM, in the presence of tyrosinase (10 U/mL)
[12] = 30 µM, 48 h incubation (data not shown)
[13] = read-out: Ki with respect to CDNB (0.2–1 mM), GSH 1 mM
[14] = read-out: Ki with respect to GSH (0.2–1 mM), CDNB 1 mM

T2 sequence (P09211 2-210 limits assumed): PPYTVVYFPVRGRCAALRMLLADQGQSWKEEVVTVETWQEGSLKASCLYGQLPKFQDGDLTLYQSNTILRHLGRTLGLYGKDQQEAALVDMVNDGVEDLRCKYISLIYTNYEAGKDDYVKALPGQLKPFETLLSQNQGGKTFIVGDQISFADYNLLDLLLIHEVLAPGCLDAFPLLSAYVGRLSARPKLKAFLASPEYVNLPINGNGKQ
T1 sequence (P09211 2-210 limits assumed): as above

GST inhibition in the absence and presence of tyrosinase [1]: no GST inhibition
substrate for tyrosinase [4]: substrates for tyrosinase
Compound: COc1ccc(O)cc1 [4-HA, 4-hydroxyanisole]
cell toxicity [2, 12]: 2–27%
IC50 [2]: 60 µM
substrate for GST (GSH consumption as biomarker) [3]: none of these tested compounds, including CAPE, 4-HA, tyrosine, and CA, was a substrate for GST

GST activity inhibition ([1]; 50 µM): no significant GST inhibition
Compound: COC1=CC(=O)C(=O)C=C1 [4-HA-quinone]

Compound: CCCCS(=N)(=O)CCC(N)C(=O)O (centres unmarked) [BSO]
effect on CAPE induced toxicity in SK-MEL-28 cells ([5]; data not shown): enhanced

reversible or irreversible nature of GST inhibition [6]: weak and reversible inhibitors of GST
substrate for tyrosinase [4]: substrates for tyrosinase
Compound: O=C(O)/C=C/c1ccc(O)c(O)c1 [CA, caffeic acid]
cell toxicity [2, 12]: 2–27%
IC50 [2]: 2300 µM
substrate for GST (GSH consumption as biomarker) [3]: none of these tested compounds, including CAPE, 4-HA, tyrosine, and CA, was a substrate for GST

reversible or irreversible nature of GST inhibition [6]: irreversibly
Compound: O=C(O)/C=C/C1=CC(=O)C(=O)C=C1 [CA-quinone]

inhibition at 50 µM ([1]; read-out: GST activity inhibition): 13%
reversible or irreversible nature of GST inhibition [6]: weak and reversible inhibitors of GST
substrate for tyrosinase [4]: substrates for tyrosinase
CAPE metabolized by tyrosinase ([4]; after a 60-min incubation): 90%
Mechanism of GST inhibition, with respect to GSH (0.2–1 mM): Inhibition ([8]; CDNB 1 mM): Mixed
Ki′ with respect to GSH (0.2–1 mM) ([8]; CDNB 1 mM): 2990 µM
Mechanism of GST inhibition, with respect to CDNB (0.2–1 mM): Inhibition ([8]; GSH 1 mM): Mixed
Ki′ with respect to CDNB (0.2–1 mM) ([8]; GSH 1 mM): 451 µM
Ki ([8]; Ki with respect to CDNB (0.2–1 mM), GSH 1 mM): 233 µM
Ki ([8]; Ki with respect to GSH (0.2–1 mM), CDNB 1 mM): 942 µM
Compound: O=C(/C=C/c1ccc(O)c(O)c1)OCCc1ccccc1 [CAPE, caffeic acid phenethyl ester]
stability in human plasma [7]: highly stable
MTT assay value, No modulator ([5]; CAPE 15 µM): 52 ± 2
MTT assay value, Ethacrynic acid (2 µM) ([5]; CAPE 15 µM): 51 ± 2
MTT assay value, MK-571 (10 µM) ([5]; CAPE 15 µM): 39 ± 3
MTT assay value, Probenecid (500 µM) ([5]; CAPE 15 µM): 31 ± 2
MTT assay value, No modulator ([5]; CAPE 30 µM): 38 ± 2
MTT assay value, Ethacrynic acid (2 µM) ([5]; CAPE 30 µM): 39 ±4
MTT assay value, MK-571 (10 µM) ([5]; CAPE 30 µM): 26 ± 1
MTT assay value, Probenecid (500 µM) ([5]; CAPE 30 µM): 29 ± 1
cell toxicity ([2]; 15 µM, 48 h incubation): 48%
IC50 [2]: 15 µM
substrate for GST (GSH consumption as biomarker) [3]: none of these tested compounds, including CAPE, 4-HA, tyrosine, and CA, was a substrate for GST

GST activity inhibition ([1]; 10 µM): 70%
GST inhibition [1]: ≥ 85%
GST activity inhibition ([1]; 50 µM): 93%
reversible or irreversible nature of GST inhibition [6]: irreversible covalent binding
Mechanism of GST inhibition, with respect to GSH (0.2–1 mM): Inhibition ([8]; CDNB 1 mM): Competitive
Mechanism of GST inhibition, with respect to CDNB (0.2–1 mM): Inhibition ([8]; GSH 1 mM): Mixed
Ki′ with respect to CDNB (0.2–1 mM) ([8]; GSH 1 mM): 8.8 µM
Ki [8, 13]: 2.7 µM
Ki [8, 14]: 0.7 µM
Compound: O=C(/C=C/C1=CC(=O)C(=O)C=C1)OCCc1ccccc1 [CAPE-quinone]

Compound: O=[N+]([O-])c1ccc(Cl)c([N+](=O)[O-])c1 [CDNB, 1-chloro-2,4-dinitrobenzene]
glutathione consumed per mole of CDNB ([3]; CDNB metabolized by GST, 60 min incubation, positive control): 0.6 mol

Compound: C=C(CC)C(=O)c1ccc(OCC(=O)O)c(Cl)c1Cl [Ethacrynic acid, ethacrynic acid]
effect on the IC50 value of CAPE towards melanoma cells ([5]; EA 2 µM): did not affect
MTT assay value, modulator alone, Cells (1% DMSO) [5]: 96 ± 3
MTT assay value, modulator alone, Cells [5]: 97 ± 4

Compound: CN(C)C(=O)CCSC(SCCC(=O)O)c1cccc(/C=C/c2ccc3ccc(Cl)cc3n2)c1 (centres unmarked) [MK-571]
increase of CAPE (15 µM) induced apoptotic cell death [9]: 3%
increase of CAPE (30 µM) induced apoptotic cell death [9]: 7%
increase of the effect of CAPE (15–30 µM) on mitochondrial membrane potential [10]: 3–4 fold
further decrease of mitochondrial membrane potential for CAPE (15 µM) [10]: 10%
further decrease of mitochondrial membrane potential for CAPE (30 µM) [10]: 29%
decrease of the IC50 value of CAPE (30 µM) [5]: 12%
MTT assay value, modulator alone, Cells (1% DMSO) [5]: 97 ± 1
MTT assay value, modulator alone, Cells [5]: 98 ± 3

Compound: CCCN(CCC)S(=O)(=O)c1ccc(C(=O)O)cc1 [probenecid]
increase of CAPE (15 µM) induced apoptotic cell death [9]: 13%
increase of CAPE (30 µM) induced apoptotic cell death [9]: 16%
change of CAPE-induced apoptotic cell death ([9]; probenecid 500 µM, CAPE at 15 or 30 µM): approximately doubled
increase of the effect of CAPE (15–30 µM) on mitochondrial membrane potential [10]: 8–11 fold
further decrease of mitochondrial membrane potential for CAPE (15 µM) [10]: 56%
further decrease of mitochondrial membrane potential for CAPE (30 µM) [10]: 68%
decrease of the IC50 value of CAPE (30 µM) [5]: 9%
MTT assay value, modulator alone, Cells (1% DMSO) [5]: 99 ± 6
MTT assay value, modulator alone, Cells [5]: 97 ± 5

GST inhibition in the absence and presence of tyrosinase [1]: no GST inhibition
substrate for tyrosinase [4]: substrates for tyrosinase
Compound: N[C@@H](Cc1ccc(O)cc1)C(=O)O [tyrosine, L-tyrosine]
cell toxicity [2, 12]: 2–27%
IC50 [2]: > 5000 µM
substrate for GST (GSH consumption as biomarker) [3]: none of these tested compounds, including CAPE, 4-HA, tyrosine, and CA, was a substrate for GST
GST inhibition in SK-MEL-28 melanoma cell homogenate [11]: did not show any significant GST inhibition

Compound: N[C@@H](CC1=CC(=O)C(=O)C=C1)C(=O)O [tyrosine–quinone]
GST activity inhibition ([1]; 50 µM): no significant GST inhibition

Compound: caffeic acid glutathione conjugate [CA-SG conjugate]
reversible or irreversible nature of GST inhibition [6]: reversibly

Compound: caffeic acid phenethyl ester glutathione conjugate [CAPE-SG conjugate]
GST inhibition [1]: ≥ 85%
reversible or irreversible nature of GST inhibition [6]: reversible
Mechanism of GST inhibition, with respect to GSH (0.2–1 mM): Inhibition ([8]; CDNB 1 mM): Mixed
Ki′ with respect to GSH (0.2–1 mM) ([8]; CDNB 1 mM): 14 µM
Mechanism of GST inhibition, with respect to CDNB (0.2–1 mM): Inhibition ([8]; GSH 1 mM): Competitive
Ki [8, 13]: 3.1 µM
Ki [8, 14]: 2.6 µM
